According to EP0293500A1, “3-heteroalkyl-2,4.quinzaoline-diones” (AMERICAN CYANAMID COMPANY, priority 1987, dated 1988):

How the values were obtained:
[1] = test system: spontaneously hypertensive rats of the Okamoto strain; experiment: Hypotensive activity in spontaneously hypertensive rats (method of Chan and Poorvin); assay type: in vivo; settings: male SHR, average MABP 160±1.5 mm of mercury; gavage, 100 mg/kg or less, second identical dose 24 hours later; MABP at 28 hours after the initial dose; number of rats in brackets
thromboxane synthetase = target: T1, thromboxane synthetase (Rattus norvegicus, UniProt P49430); experiment: Inhibition of thromboxane (TX) formation (TXB2 radioimmunoassay) in washed rat platelets; assay type: cell-based, Okamoto-Aoki spontaneously hypertensive rats (SHR); settings: percent inhibition of TXB2 formation; drug at 10^-4M; SHR platelet suspension, 10 minutes at 37 C
T1 construct: The platelets were isolated by centrifuging the PRP for 10 minutes at 1060xg; from tissue; host or cells: washed blood platelets from Okamoto-Aoki spontaneously hypertensive rats (SHR)
T1 sequence (P49430 1-533): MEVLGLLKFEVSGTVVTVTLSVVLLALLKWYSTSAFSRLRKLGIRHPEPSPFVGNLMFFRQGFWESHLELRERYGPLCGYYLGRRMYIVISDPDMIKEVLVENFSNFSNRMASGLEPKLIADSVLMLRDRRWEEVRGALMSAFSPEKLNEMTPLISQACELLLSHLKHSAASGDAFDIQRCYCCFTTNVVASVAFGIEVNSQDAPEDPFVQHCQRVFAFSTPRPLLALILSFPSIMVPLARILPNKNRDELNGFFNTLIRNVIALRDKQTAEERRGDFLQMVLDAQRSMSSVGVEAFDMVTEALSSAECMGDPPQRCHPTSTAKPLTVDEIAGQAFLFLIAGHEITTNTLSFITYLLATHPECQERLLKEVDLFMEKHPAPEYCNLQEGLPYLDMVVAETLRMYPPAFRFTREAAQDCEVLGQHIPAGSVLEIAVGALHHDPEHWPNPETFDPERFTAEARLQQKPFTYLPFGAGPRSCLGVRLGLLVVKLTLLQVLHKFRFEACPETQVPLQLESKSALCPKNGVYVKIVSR
Excerpt: The platelet rich plasma (PRP) was separated. […] The inhibition of thromboxane (TX) formation was studied by determing the concentration of thromboxane […] (TXB2), the stable hydrolysis product of TXA2.

| inhibition at 100 µM (thromboxane synthetase) | Compound | MABP/mm Hg (no. of rats) [1] |
| --- | --- | --- |
| 99% | O=c1c2cc(Br)ccc2ncn1CCCCn1ccnc1 [Example 125, 6-Bromo-3-[4-(1H-imidazol-1-yl)-butyl]-4(3H)-quinazolinone, dihydro-chloride] | 121(2) mm Hg |
| 99% | O=c1c2cc(Br)ccc2ncn1CCCn1ccnc1 [Example 126, 6-Bromo-3-[3-(1H-imidazol-1-yl)-propyl]-4(3H)-quinazolinone] | 122(2) mm Hg |
| 87% | Cc1ccc2ncn(CCC(C)n3ccnc3)c(=O)c2c1 (stereo not shown) [Example 127, 3-[3-(1H-Imidazol-1-yl)butyl]-6-methyl-4(3H)-quinazolinone] | 133(4) mm Hg |
| 100% | CC(Cn1ccnc1)Cn1cnc2ccccc2c1=O.Cl.Cl (stereo not shown) [Example 134, 3-[3-(1H-Imidazol-1-yl)-2-methylpropyl]-4(3H)-quinazolinone, dihydrochloride] | 121(2) mm Hg |
| 75% | O=c1c2cc(Cl)ccc2ncn1CCCn1ccnc1 [Example 138, 6-Chloro-[3-(1H-imidazol-1-yl)propyl]-4(3H)-quinazolinone] | 100(2) mm Hg |
| 89% | Cc1cn(CCCn2cnc3ccc(Cl)cc3c2=O)cn1 [Example 139, 6-Chloro-3-[3-(4-methyl-1H-imidazol-1-yl)propyl]-4(3H)-quinazolinone] | 123(3) mm Hg |
| 100% | CC(CCn1cnc2ccc(Cl)cc2c1=O)n1ccnc1 (stereo not shown) [Example 140, 6-Chloro-3-[3-(1H-Imidazol-1-yl)butyl]-4(3H)-quinazolinone] | 114(2) mm Hg |
| 70% | O=c1c2cc(Cl)ccc2ncn1CCCCCCCCn1ccnc1 [Example 143, 6-Chloro-3-[8-(1H-imidazol-1-yl)octyl]-4(3H)-quinazolinone] | 118(2) mm Hg |
